In US20240101548A1, “HYDROXAMATE COMPOUND, PREPARATION METHOD THEREFOR AND APPLICATION THEREOF” (SHENZHEN CHIPSCREEN BIOSCIENCES CO., LTD., priority 2020, published 2024):
Read-outs that look alike come from different tables or passages of the source.

Tests used:
Assay type in all cases: cell-based, human
[1] = system: IL-10-induced JAK1/TYK2 signal pathway; assay: IL-10-induced JAK1/TYK2 signal pathway STAT3-Luc reporter gene assay in U2OS cells; conditions: Homo sapiens, read-out: Half inhibition dose (IC50) on IL-10-induced JAK1/TYK2 signal pathway
Method in brief: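 U2OS cells co-transfected with IL-10R1-EGFP and STAT3-luciferase reporter plasmids; after 24 h, compound added (0–300 nM) for 6 h before 10 ng/mL human IL-10, then 24 h culture. Luciferase signal normalised to GFP for transfection efficiency; IC50 from inhibition rates.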

[2] = system: IL-2-induced JAK1/JAK3 signal pathway; assay: IL-2-induced proliferation of KHYG-1 cells (JAK1/JAK3 signal); conditions: Homo sapiens, read-out: Inhibition activity IC50 on IL-2-induced JAK1/JAK3 signal pathway
Method in brief: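 KHYG-1 NK lymphoma cells were cultured with IL-2 and test compound at various doses for 72 h at 37 °C and 5% CO2, and proliferation was read with alamarBlue fluorescence. Inhibition was normalized to wells without compound or cytokine (0%) and IL-2 wells without compound (100%), and C50 was derived from the dose-inhibition data.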

[3] = system: EPO-induced JAK2 signal pathway; assay: EPO-induced proliferation of UT-7 cells (JAK2 signal); conditions: Homo sapiens, UT7; UT-7 cell proliferation, EPO 10 ng/mL, 72 hours; read-out: Inhibition activity IC50 on EPO-induced JAK2 signal pathway
Method in brief: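 UT-7 cells (15000/well) stimulated with 10 ng/mL human recombinant EPO plus compound at final 0, 100, 1000 or 10000 nM, 72 h at 37° C., 5% CO2. Proliferation by alamarBlue fluorescence (Ex530/Em590); inhibition normalised to no-cytokine/no-compound (0) and EPO-only (100) wells, […] derived from dose-inhibition.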

[4] = U2OS cells, STAT3-Luc reporter, IL-10 10 ng/mL
[5] = U2OS, U2OS cells, STAT3-Luc reporter, IL-10 10 ng/mL
[6] = KHYG-1 cell proliferation, IL-2 10 ng/mL, 72 hours

| SMILES | IC50 [1, 4] [µM] | IC50 ([2]; KHYG-1, 72 h) [µM] | IC50 [3] [µM] | IC50 [1, 5] [µM] | IC50 [2, 6] [µM] | IC50 ([1]; U2OS) [µM] |
| --- | --- | --- | --- | --- | --- | --- |
| CCONC(=O)c1cnc(Nc2cccc(F)n2)cc1Nc1ccccc1NS(=O)(=O)C1CC1 [Example 116, 4-((2-(cyclopropylsulfonamido)phenyl)amino)-N-ethoxy-6-((6-fluoropyridin-2-yl)amino)nicotinamide] | 0.000471 | > 10 | > 10 |  |  |  |
| CONC(=O)c1cnc(Nc2cccc(F)n2)cc1Nc1cccc(-n2cccn2)c1OC [Example 42, 6-((6-fluoropyridin-2-yl)amino)-N-methoxy-4-((2-methoxy-3-(1H-pyrazol-1-yl)phenyl)amino)nicotinamide] |  |  | > 10 | 0.00151 | > 10 |  |
| CCONC(=O)c1cnc(Nc2ccc(C3CC3)cn2)cc1Nc1ccc(OC)cc1N(C)S(C)(=O)=O [Example 155, 6-((5-cyclopropylpyridin-2-yl)amino)-N-ethoxy-4-((4-methoxy-2-(N-methylmethanesulfonamido)phenyl)amino)nicotinamide] |  |  | > 10 | 0.00179 | > 10 |  |
| [2H]C([2H])([2H])Oc1c(Nc2cc(Nc3cc(C)nc(C)n3)ncc2C(=O)NOCC)cccc1-c1ncccn1 [Example 279, 6-((2,6-dimethylpyrimidin-4-yl)amino)-N-ethoxy-4-((2-(methoxy-d3)-3-(pyrimidin-2-yl)phenyl)amino)nicotinamide] |  |  | > 10 |  | > 10 | 0.00053 |
| C#Cc1ccc(Nc2cc(Nc3ccc(OC)cn3)ncc2C(=O)NOC)c(N(C)S(C)(=O)=O)c1 [Example 18, 4-((4-ethynyl-2-(N-methylmethanesulfonamido)phenyl)amino)-N-methoxy-6-((5-methoxypyridin-2-yl)amino)nicotinamide] | 0.000784 |  | > 10 |  | > 10 |  |
| CCONC(=O)c1cnc(Nc2cc(C)nc(C)n2)cc1Nc1ccc(OC(C)C)cc1N(C)S(C)(=O)=O [Example 178, 6-((2,6-dimethylpyrimidin-4-yl)amino)-N-ethoxy-4-((4-isopropoxy-2-(N-methylmethanesulfonamido)phenyl)amino)nicotinamide] |  |  | > 10 | 0.00128 | > 10 |  |
| CCONC(=O)c1cnc(Nc2cc(C)nc(C)n2)cc1Nc1ccc(Cl)cc1N(C)S(=O)(=O)CC [Example 187, 4-((4-chloro-2-(N-methylethylsulfonamido)phenyl)amino)-6-((2,6-dimethylpyrimidin-4-yl)amino)-N-ethoxynicotinamide] |  |  | > 10 | 0.000906 | > 10 |  |
| CONC(=O)c1cnc(NC(=O)C2CC2)cc1Nc1cccc(-c2ccn(C)n2)c1OC [Example 29, 6-(cyclopropylcarboxamido)-N-methoxy-4-((2-methoxy-3-(1-methyl-1H-pyrazol-3-yl)phenyl)amino)nicotinamide] |  |  | > 10 | 0.00233 | > 10 |  |
| CCONC(=O)c1cnc(Nc2cnccn2)cc1Nc1ccc(C2CC2)cc1N(C)S(C)(=O)=O [Example 145, 4-((4-cyclopropyl-2-(N-methylmethanesulfonamido)phenyl)amino)-N-ethoxy-6-(pyrazin-2-ylamino)nicotinamide] |  |  | > 10 | 0.000301 | > 10 |  |
| CCONC(=O)c1cnc(Nc2ccncn2)cc1Nc1cc(F)c(C(C)C)cc1N(C)S(C)(=O)=O [Example 230, N-ethoxy-4-((5-fluoro-4-isopropyl-2-(N-methylmethanesulfonamido)phenyl)amino)-6-(pyrimidin-4-ylamino)nicotinamide] |  |  | > 10 | 0.00085 | > 10 |  |
| CCONC(=O)c1cnc(Nc2ccc(OC)cc2)cc1Nc1ccc(Cl)cc1N(C)S(C)(=O)=O [Example 113, 4-((4-chloro-2-(N-methylmethanesulfonamido)phenyl)amino)-N-ethoxy-6-((4-methoxyphenyl)amino)nicotinamide] |  |  | > 10 | 0.000414 | > 10 |  |
| CONC(=O)c1cnc(Nc2cc(C)nc(C)n2)cc1Nc1ccccc1N(C)S(C)(=O)=O [Example 45] |  |  | > 10 | 0.000855 | > 10 |  |
| CCONC(=O)c1cnc(Nc2cc(C)nc(C)n2)cc1Nc1ccc(F)cc1N(C)S(=O)(=O)C1CC1 [Example 183] |  |  | > 10 | 0.000796 | > 10 |  |
| CP(C)(=O)c1ccccc1Nc1cc(NC(=O)C2CC2)ncc1C(N)=O [Example 93, 6-(cyclopropylcarboxamido)-4-((2-(dimethylphosphoryl)phenyl)amino)nicotinamide] |  |  | > 10 | 0.279 | > 10 |  |
| C#Cc1cc(N(C)S(C)(=O)=O)c(Nc2cc(Nc3cc(C)nc(C)n3)ncc2C(=O)NOCC)cc1F [Example 182] |  |  | > 10 | 0.00159 | > 10 |  |
| C#Cc1ccc(Nc2cc(Nc3cc(C)nc(C)n3)ncc2C(=O)NOCC)c(N(C)S(C)(=O)=O)c1 [Example 127, 6-((2,6-dimethylpyrimidin-4-yl)amino)-N-ethoxy-4-((4-ethynyl-2-(N-methylmethanesulfonamido)phenyl)amino)nicotinamide] |  |  | > 10 | 0.000776 | > 10 |  |
| CCONC(=O)c1cnc(NC(=O)C2CC2)cc1Nc1cc(F)c(C2CC2)cc1N(C)S(C)(=O)=O [Example 97, 6-(cyclopropylcarboxamido)-4-((4-cyclopropyl-5-fluoro-2-(N-methylmethanesulfonamido)phenyl)amino)-N-ethoxy nicotinamide] |  |  | > 10 | 0.00133 | > 10 |  |
| CCONC(=O)c1cnc(NC(=O)C2CC2)cc1Nc1cc(F)cc(-c2ncc(F)cn2)c1OC [Example 210, 6-(cyclopropylcarboxamido)-N-ethoxy-4-((5-fluoro-3-(5-fluoropyrimidin-2-yl)-2-methoxyphenyl)amino)nicotinamide] |  |  | > 10 | 0.000958 | > 10 |  |
| CCONC(=O)c1cnc(Nc2ccc(OC)cn2)cc1Nc1ccc(C2CC2)cc1N(C)S(C)(=O)=O [Example 20, 4-((4-cyclopropyl-2-(N-methylmethanesulfonamido)phenyl)amino)-N-ethoxy-6-((5-methoxypyridin-2-yl)amino)nicotinamide] |  |  | > 10 | 0.000955 | > 10 |  |
| CONC(=O)c1cnc(Nc2cccc(F)n2)cc1Nc1ccc(Cl)cc1N(C)S(C)(=O)=O [Example 47, 4-((4-chloro-2-(N-methylmethanesulfonamido)phenyl)amino)-6-((6-fluoropyridin-2-yl)amino)-N-methoxy nicotinamide] |  |  | > 10 | 0.00134 | > 10 |  |
| CCONC(=O)c1cnc(Nc2ccc(F)cn2)cc1Nc1ccc(C2CC2)cc1N(C)S(C)(=O)=O [Example 95, 4-((4-cyclopropyl-2-(N-methylmethanesulfonamido)phenyl)amino)-N-ethoxy-6-((5-fluoropyridin-2-yl)amino)nicotinamide] |  |  | > 10 | 0.00228 | > 10 |  |
| CONC(=O)c1cnc(Nc2ccc(F)cn2)cc1Nc1ccccc1N(C)S(C)(=O)=O [Example 4, 6-((5-fluoropyridin-2-yl)amino)-N-methoxy-4-((2-(N-methylmethanesulfonamido)phenyl)amino)nicotinamide] |  |  | > 10 | 0.000705 | > 10 |  |
| CCONC(=O)c1cnc(Nc2ccc(C#N)cn2)cc1Nc1ccc(C2CC2)cc1N(C)S(C)(=O)=O [Example 126, 6-((5-cyanopyridin-2-yl)amino)-4-((4-cyclopropyl-2-(N-methylmethanesulfonamido)phenyl)amino)-N-ethoxy nicotinamide] |  |  | > 10 | 0.000702 | > 10 |  |
| CCONC(=O)c1cnc(Nc2cc(C)nc(C)n2)cc1Nc1cccc(-c2ncc(Cl)cn2)c1OC [Example 218, 4-((3-(5-chloropyrimidin-2-yl)-2-methoxyphenyl)amino)-6-((2,6-dimethylpyrimidin-4-yl)amino)-N-ethoxy nicotinamide] | 0.000171 |  | > 10 |  | > 10 |  |
| CONC(=O)c1cnc(Nc2ccc(OC)cn2)cc1Nc1ccc(C)cc1N(C)S(C)(=O)=O [Example 108] |  |  | > 10 | 0.00187 | > 10 |  |
| CCONC(=O)c1cnc(NC(=O)C2CC2)cc1Nc1cccc(-c2ncc(F)cn2)c1OC [Example 209, 6-(cyclopropylcarboxamido)-N-ethoxy-4-((3-(5-fluoropyrimidin-2-yl)-2-methoxyphenyl)amino)nicotinamide] |  |  | > 10 | 0.00178 | > 10 |  |
| CONC(=O)c1cnc(Nc2cc(C)c(F)cn2)cc1Nc1ccccc1N(C)S(C)(=O)=O [Example 44, 6-((5-fluoro-4-methylpyridin-2-yl)amino)-N-methoxy-4-((2-(N-methylmethanesulfonamido)phenyl)amino)nicotinamide] |  |  | > 10 | 0.00104 | > 10 |  |
